Source: patent publication US8383657B2, “Thiazolylidine urea and amide derivatives and methods of use thereof” (Abbott Laboratories, priority 2007, dated 2013)

Experiments:
Format in all cases: cell-based
[1] = target: T1, α7 NNRs (Rattus norvegicus, UniProt Q05941); assay: High-throughput ERK phosphorylation assay (in-cell western) using PC-12 cells expressing endogenous α7 NNRs
T1 construct: host or cells: PC-12 rat pheochromocytoma cells
Experimental: (iii) High-Throughput ERK Phosphorylation Assays Using Cells Expressing Endogenous α7 NNRs
Rat pheochromocytoma (PC-12) cells (ATCC, Manassas, Va.) were cultured and maintained in F-12K media supplemented with 15% horse serum, 2.5% fetal calf serum, and 2 mM L-glutamine in poly-D lysine coated dishes at 37° C. and 5% CO2. Cells were plated in black-walled clear bottom 96-well Biocoat™ plates coated with poly-D-lysine (BD Biosciences, Bedford, Mass.) and grown for 2-3 days. Afterward, the culture media is replaced with serum-free media to starve cells overnight. On the day of the assay, cell media was removed and cells (60-80% confluent) were treated with agonist and/or modulator in Dulbecco's phosphate buffer saline (D-PBS) (with Ca^2+, Mg^2+, and 1 mg/ml D-glucose), as indicated in the result section.
PC-12 cells are treated for 10 minutes at 37° C. with test PAM compounds and then challenged with a selective α7 agonist for 5 minutes at 37° C. in a final volume of 100 μl/well, unless otherwise indicated. After treatment, media was discarded and adherent cells were immediately fixed in the presence of 150 μl/well of 3.7% formaldehyde/phosphate-buffered saline for 30-60 minutes at room temperature. […] Well intensities were quantitated and phospho-ERK signals were normalized to total ERK signals by the Odyssey software. […]

[2] = target: T2, α7 NNRs (Homo sapiens, UniProt P36544); assay: High-throughput calcium flux (FLIPR) assay using IMR-32 cells expressing endogenous α7 NNRs; set-up: Emax: dose or concentration left out as unconfirmed
T2 construct: using cells natively expressing α7 NNRs; host or cells: IMR-32 neuroblastoma cells
T2 sequence (P36544 23-502): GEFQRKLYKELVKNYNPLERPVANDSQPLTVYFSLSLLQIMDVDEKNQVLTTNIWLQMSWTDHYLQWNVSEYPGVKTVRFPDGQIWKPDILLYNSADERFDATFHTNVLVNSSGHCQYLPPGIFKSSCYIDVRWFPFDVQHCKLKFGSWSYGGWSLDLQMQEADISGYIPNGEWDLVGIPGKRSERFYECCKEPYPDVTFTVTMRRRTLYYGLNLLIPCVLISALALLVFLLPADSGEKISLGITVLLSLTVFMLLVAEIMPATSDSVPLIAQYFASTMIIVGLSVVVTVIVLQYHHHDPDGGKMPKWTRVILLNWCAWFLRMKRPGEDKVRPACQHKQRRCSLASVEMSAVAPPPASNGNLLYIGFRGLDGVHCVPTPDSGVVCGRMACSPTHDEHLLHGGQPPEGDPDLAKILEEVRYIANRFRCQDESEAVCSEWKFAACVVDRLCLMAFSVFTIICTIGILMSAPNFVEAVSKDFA
Experimental: (ii) High-Throughput Calcium Flux Assays Using Cells Expressing Endogenous α7 NNRs
IMR-32 neuroblastoma cells (ATCC) were grown to confluency in 162 cm^2 tissue culture flasks in minimum essential media supplemented with 10% FBS and 1 mM sodium pyruvate, 0.1 mM non-essential amino acids and 1% antibiotic-antimycotic. The cells were then dissociated using cell dissociation buffer and 40 μl of 3.5×10^5 cells/ml cell suspension was plated (about 15,000 cells/well) into black plates with clear bottom and maintained for 48 hours in a tissue culture incubator at 37° C. under an atmosphere of 5% CO2: 95% air. […] Calcium flux was measured using calcium-3 assay kit (Molecular Devices, Sunnyvale, Calif.) or fluo-4. A stock solution of the dye was prepared by dissolving each vial supplied by the vendor in Hank's balanced salt solution buffer (HBSS) containing 20 mM HEPES. The stock solution was diluted 1:20 using the same buffer before use. After removing the growth media, the cells were loaded with 45 μl of the dye and incubated at room temperature for three hours. Fluorescence measurements were read simultaneously from all the wells by a Fluorometric Imaging Plate Reader (FLIPR) at an excitation wavelength of 480 nm and an emission wavelength of 520 nm. Baseline fluorescence was measured for the first 10 seconds at which 5× concentrations of modulator/test compounds were added to the cell plate and incubated for three minutes. The fluorescence intensity was captured every second for the first 1 minute followed by every 5 seconds for an additional 2 minutes. This procedure was followed by 20 μl of 4× concentration of agonist and readings were taken for a period of three minutes as described above. […] The concentration dependence of changes fluorescence responses was fitted by nonlinear regression analysis (GraphPad Prism, San Diego, Calif.) to obtain EC50 values.
PAMs were identified by measuring fluorescence changes to intracellular calcium in a fluorometric plate reader in the presence of selective α7 NNR agonists using cells natively expressing α7 NNRs. […]

[3] = target: T3, human α7 NNR (Homo sapiens, UniProt P36544); assay: Two-electrode voltage-clamp in Xenopus laevis oocytes: potentiation of ACh-evoked α7 currents; details: FIG. 1A
T3 construct: expressed in transfected cells; host or cells: Xenopus laevis oocytes injected with cRNA
T3 sequence (P36544 23-502): as above
Experimental: (i) Two-Electrode Voltage-Clamp in Xenopus laevis Oocytes.
X. laevis oocytes were prepared for electrophysiological experiments as described in the literature (see for example, Briggs, C. A., Mckenna, D. G., and Piattina-kaplan, M., Human α7 nicotinic acetylcholine receptor responses to novel ligands, Neuropharmacology, 1995, 34: 583-590; Briggs, C. A., and Mckenna, D. G., Activation and inhibition of the human α7 nicotinic acetylcholine receptor by agonists, Neuropharmacology, 1998, 37: 1095-1102). […] Responses were measured by two-electrode voltage clamp using parallel oocyte electrophysiology test station (Abbott, Abbott Park, Ill.) (see for example, Trumbull, J. D., Maslana, E. S., McKenna, D. G., Nemcek, T. A., Niforatos, W., Pan, J. Y., Parihar, A. S., Shieh, C. C., Wilkins, J. A., Briggs, C. A., and Bertrand, D., High throughput electrophysiology using a fully automated, multiplexed recording system, Receptors Channels, 2003, 9: 19-28). […] The data were expressed as percentage potentiation over the response to 0.1 mM ACh alone. […]

T1 sequence (Q05941 23-502): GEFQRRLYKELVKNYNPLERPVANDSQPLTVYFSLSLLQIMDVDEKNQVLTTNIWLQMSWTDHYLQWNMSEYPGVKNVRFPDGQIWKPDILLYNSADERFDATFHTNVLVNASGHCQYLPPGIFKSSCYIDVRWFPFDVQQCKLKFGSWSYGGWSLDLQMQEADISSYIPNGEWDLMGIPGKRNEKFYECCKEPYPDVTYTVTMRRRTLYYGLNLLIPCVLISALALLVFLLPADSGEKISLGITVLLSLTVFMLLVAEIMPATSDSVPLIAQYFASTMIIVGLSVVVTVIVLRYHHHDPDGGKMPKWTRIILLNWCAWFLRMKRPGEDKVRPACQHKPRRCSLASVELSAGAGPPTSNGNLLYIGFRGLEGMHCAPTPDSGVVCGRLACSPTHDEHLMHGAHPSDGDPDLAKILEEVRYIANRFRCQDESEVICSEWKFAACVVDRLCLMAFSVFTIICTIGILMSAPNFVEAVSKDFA

Structure (SMILES) | EC50 ([1]; FIG. 1C, PC-12 cells, α7 selective agonist PNU-282987) | Emax ([1]; PC-12, read-out: maximal efficacy) | EC50 ([2]; FIG. 1B, IMR-32 cells, agonist 4-(5-phenyl-[1,3,4]oxadiazol-2-yl)-1,4-diaza-bicyclo[3.2.2]nonane at 10 μM, read-out: EC50 value, calcium fluorescence response) | Emax ([2]; IMR-32, read-out: maximal effects, normalized change in fluorescence) | EC50 ([3]; 0.1 mM ACh, oocytes injected with human α7 NNR cRNA, read-out: EC50 value, potentiating 0.1 mM ACh-evoked α7 currents in oocytes) | degree of potentiation ([3]; percentage potentiation over the response to 0.1 mM ACh alone) | effect on calcium response to agonist plus modulator ([2]; IMR-32 cells, α7 selective antagonist)
Cc1cn(-c2ccc(C(F)(F)F)cc2)/c(=N/C(=O)N2CCCC2)s1 [Example 18, N-[(2Z)-5-methyl-3-[4-(trifluoromethyl)phenyl]-1,3-thiazol-2(3H)-ylidene]pyrrolidine-1-carboxamide] | 1.4 µM | 111% | 3.4 µM | 110% | 4 µM | 300% | –
CCN1C[C@]2(COC(=O)c3ccccc3N3C(=O)C[C@H](C)C3=O)CC[C@H](OC)[C@@]34[C@@H]5C[C@H]6[C@H](OC)[C@@H]5[C@](O)(C[C@@H]6OC)[C@@](O)([C@@H](OC)[C@H]23)[C@@H]14 [methyllycaconitine, reference compound] | – | – | – | – | – | – | abolishes response
